These results are taken from PubChem BioAssay AID2060497 (Molecular Pharmacology Branch, DTP, NCI, 2025).

This assay relates to 317291-083-R-J1-PDC complex spheroids, viability. As to the kind of experiment: Anticancer human tumor 317291-083-R-J1-PDC patient-derived soft tissue sarcoma cell line growth inhibition [GQUAD]. The note with it: for viability, T/C: stronger effect = lower value. From the text: DNA G-quadruplex Stabilizer Agents in Combinations in Complex Spheroids
A high-throughput screen of multi-cell type tumor spheroids was designed to identify active combinations of DNA G-quadruplex stabilizer agents and targeted small molecules. Complex spheroids include a stromal component modeled by human endothelial cells (HUVEC) and fibroblasts modeled by human mesenchymal stem cells (MSCs). The concentration ranges selected for each drug and investigational agent were based upon clinically achievable concentrations if the clinical Cmax of the agent was known.
Compounds. The drugs and investigational agents: pidnarulex (CX-5461; NSC782164), APTO-253 (NSC789042), BRACO-19 (NSC847499), peposertib (NSC802822), ceralasertib (NSC780249), elimusertib (NSC800525), camonsertib (NSC841442), AZD-1390 (NSC803789), olaparib (NSC753686), talazoparib (NSC767125), ART-558 (NSC835418), sotorasib (NSC818433), MRTX-1133 (NSC836407), SN-38 (NSC673596), topotecan (NSC609699), etoposide (NSC141540), doxorubicin (NSC123127), gemcitabine (NSC613327), 5-fluorouracil (NSC19893), paclitaxel (NSC125973), vemurafenib (NSC761431), panobinostat (NSC761190), R-306465 (JNJ-16241199; NSC773264), adavosertib (NSC754352), TP-3654 (NSC805149), carboplatin (NSC241240), KSQ-4279 (NSC840948), and staurosporine (NSC755774) were obtained from the National Cancer Institute (NCI) Developmental Therapeutics Program Chemical Repository (34). The FDA-approved anticancer drug set is available from the NCI Developmental Therapeutics Program. […] The stock solutions were prepared in dimethyl sulfoxide (DMSO, Sigma-Aldrich, St. Louis, MO, cat. D2650) at 800-fold the tested concentration and stored at -70 degrees C prior to their use. All drugs and investigational agents were tested over a range starting from a high concentration at or near the clinical Cmax and decreasing in half-log increments. If the clinical Cmax for an agent had not been determined, the highest concentration tested was 10 microM.
2.3 Cell Culture. All cells were maintained in an incubator at 37 degrees C and 5% CO2 with 95% humidity. The PDC lines were cultured according to standard operating procedures established by the NCI PDMR. All PDCs were thawed and cultured in Matrigel-coated flasks prepared with a working solution of 1X Ham's F-12 nutrient mix, without supplementation (Invitrogen, cat. 11765054), 100 U/mL penicillin-streptomycin (Invitrogen, cat. 15140122), and 2.5% Matrigel (Corning Inc., cat. 354248) for the first three passages. The 857933-349-R-J2-PDC line was cultured in 6C/Colon 1B media, which includes advanced DMEM/F-12 (Thermo Fisher Scientific, cat. 12634028), 10 mM HEPES (Thermo Fisher Scientific, cat. 15630080), 1X GlutaMAX supplement (Thermo Fisher Scientific, cat. 35050061), 0.1 mg/mL primocin (InvivoGen, cat. ant-pm-2), 10% defined fetal bovine serum, heat inactivated (HyClone Laboratories Inc., cat. SH30070.03HI), 50% L-WRN conditioned media (ATCC, cat. CRL-3276), 1.25 mM N-Acetyl-L-cysteine (Sigma-Aldrich, cat. A9165), 10 mM nicotinamide (Sigma-Aldrich, cat. N0636), 1X B-27 supplement (Thermo Fisher Scientific, cat. 17504044), 1X N-2 supplement (Thermo Fisher Scientific, cat. 17502048), 10 microM Y-27632 dihydrochloride (Tocris Bioscience, cat. 1254), and 50 ng/mL human EGF recombinant protein (Thermo Fisher Scientific, cat. PHG0311). The 485176-168-R4-J1-PDC line was cultured in Panc media, which includes all 6C/Colon 1B media components plus 100 ng/mL human FGF-10 (Thermo Fisher Scientific, cat. 100-26), 500 nM SB-431542 (Selleckchem, cat. S1067), and gastrin (Tocris, cat. 3006).
[…]

Values joined by “and” are separate entries in the source; they are usually repeats but may differ in a detail not shown here. Equal entries are not always repeated. A value given as a limit tells only on which side of the number the result lay.
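Further: spheroids exposed to compounds for one week before readout.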
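Wherever viability, T/C is given: percent viability relative to DMSO vehicle wells taken as 100%.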

Take `Cc1cnc(CNC(=O)c2c(=O)c3ccc(N4CCCN(C)CC4)nc3n3c2sc2ccccc23)cn1`: the viability, T/C runs as follows: (compound 0.0316 µM) 93.8% [middle of 12 runs]; (compound 0.1 µM) 68.8% [middle of 12 runs]; (compound 1 µM) 31.6% [middle of 12 runs].

Take `O=C(NO)c1cnc(N2CCN(S(=O)(=O)c3ccc4ccccc4c3)CC2)nc1`: the viability, T/C is 109% and 96.9% and 93.2% (compound 0.0316 µM); 62.2% and 72.5% and 96.7% (compound 0.1 µM); 8.74% and 8.1% and 24.6% (compound 0.316 µM); 0.24% and 0.48% and 0.9% (compound 1 µM); 0.11% and 0.05% and 0.04% (compound 3.16 µM); 0.29% and 1.01% and 0.08% (compound 10 µM). Besides, the IC50 (curve of compound) is 130 nM and 149 nM and 209 nM.

For `CCc1c2c(nc3ccc(O)cc13)-c1cc3c(c(=O)n1C2)COC(=O)[C@]3(O)CC` + CN(C)c1ccc(Nc2c3ccc(NC(=O)CCN4CCCC4)cc3nc3cc(NC(=O)CCN4CCCC4)ccc23)cc1, the IC50 reads like this: (curve of first compound, second compound 0.0316 µM) 1.31 nM; (curve of first compound, second compound 0.1 µM) 1.65 nM; (curve of first compound, second compound 0.316 µM) less than 0.999 nM; (curve of first compound, second compound 1 µM) less than 0.999 nM; (curve of first compound, second compound 3.16 µM) less than 0.999 nM; (curve of first compound, second compound 10 µM) less than 0.999 nM. Further, the viability, T/C by setting is: (second compound 0.0316 µM, first compound 0.000999 µM) 58%; (second compound 0.0316 µM, first compound 0.00316 µM) 24.2%; (second compound 0.0316 µM, first compound 0.00999 µM) 15.7%; (second compound 0.0316 µM, first compound 0.0316 µM) 10.1%; (second compound 0.0316 µM, first compound 0.0999 µM) 7.96%; (second compound 0.0316 µM, first compound 0.316 µM) 5.2%. For the same compound, the viability, T/C is 65.8% (second compound 0.1 µM, first compound 0.000999 µM); 28.6% (second compound 0.1 µM, first compound 0.00316 µM); 17.5% (second compound 0.1 µM, first compound 0.00999 µM); 10.9% (second compound 0.1 µM, first compound 0.0316 µM); 9.19% (second compound 0.1 µM, first compound 0.0999 µM); 5.38% (second compound 0.1 µM, first compound 0.316 µM). For the same compound, the viability, T/C reads like this: (second compound 0.316 µM, first compound 0.000999 µM) 48.7%; (second compound 0.316 µM, first compound 0.00316 µM) 24.2%; (second compound 0.316 µM, first compound 0.00999 µM) 15.5%; (second compound 0.316 µM, first compound 0.0316 µM) 13.7%; (second compound 0.316 µM, first compound 0.0999 µM) 8.7%; (second compound 0.316 µM, first compound 0.316 µM) 5.23%. The viability, T/C was 28.4% (second compound 1 µM, first compound 0.000999 µM); 15.4% (second compound 1 µM, first compound 0.00316 µM); 10.4% (second compound 1 µM, first compound 0.00999 µM); 5.97% (second compound 1 µM, first compound 0.0316 µM); 7.46% (second compound 1 µM, first compound 0.0999 µM); 3.88% (second compound 1 µM, first compound 0.316 µM). The viability, T/C was 20.7% (second compound 3.16 µM, first compound 0.000999 µM); 9.56% (second compound 3.16 µM, first compound 0.00316 µM); 7.45% (second compound 3.16 µM, first compound 0.00999 µM); 4.96% (second compound 3.16 µM, first compound 0.0316 µM); 4.76% (second compound 3.16 µM, first compound 0.0999 µM); 2.38% (second compound 3.16 µM, first compound 0.316 µM). For the same compound, the viability, T/C by setting is: (second compound 10 µM, first compound 0.000999 µM) 8.21%; (second compound 10 µM, first compound 0.00316 µM) 7.57%; (second compound 10 µM, first compound 0.00999 µM) 4.2%; (second compound 10 µM, first compound 0.0316 µM) 2.29%; (second compound 10 µM, first compound 0.0999 µM) 2.45%; (second compound 10 µM, first compound 0.316 µM) 2.41%.

Consider `CC(=O)O[C@H]1C(=O)[C@@]2(C)[C@H]([C@H](OC(=O)c3ccccc3)[C@]3(O)C[C@H](OC(=O)[C@H](O)[C@@H](NC(=O)c4ccccc4)c4ccccc4)C(C)=C1C3(C)C)[C@]1(OC(C)=O)CO[C@@H]1C[C@@H]2O`, for which the viability, T/C (compound 0.0316 µM) was 57.3% and 36.6% and 33.9%; the viability, T/C (compound 0.1 µM) is 20.6% and 16.7% and 10.5%; the viability, T/C (compound 0.316 µM) was 13.1% and 15.6% and 6.57%; the viability, T/C (compound 1 µM) is 12.8% and 15.3% and 9.02%; the viability, T/C (compound 3.16 µM) is 12.2% and 9.53% and 10.6%; the viability, T/C (compound 10 µM) is 12.3% and 12.5% and 12.1%. The 50% inhibitory concentration (IC50) (curve of compound) was 39.7 nM and < 31.6 nM.

Consider `CN(C)c1ccc(Nc2c3ccc(NC(=O)CCN4CCCC4)cc3nc3cc(NC(=O)CCN4CCCC4)ccc23)cc1`, for which the viability, T/C (compound 0.1 µM) is 99.5% [middle of 12 runs] and the viability, T/C (compound 10 µM) is 11.4% [middle of 11 runs].

Turning to `CC(C)n1c(=O)n(C)c2cnc3cc(F)c(-c4ccc(OCCCN5CCCCC5)nc4)cc3c21`, the viability, T/C reads like this: (compound 0.0316 µM) 104% and 95.2% and 133%; (compound 0.1 µM) 94% and 71.9% and 96.8%; (compound 0.316 µM) 103% and 92.6% and 102%; (compound 1 µM) 106% and 94.4% and 105%; (compound 3.16 µM) 81.3% and 74.1% and 100%; (compound 10 µM) 44.8% and 39.7% and 45.3%. The IC50 (curve of compound) was 8470 nM and 7090 nM and 9180 nM.

As for `CC1COCCN1c1cc(C2(S(C)(=N)=O)CC2)nc(-c2ccnc3[nH]ccc23)n1` (stereo not given), the viability, T/C by setting is: (compound 0.0316 µM) 88.1% and 103% and 100%; (compound 0.1 µM) 104% and 90.7% and 106%; (compound 0.316 µM) 91.8% and 90.3% and 101%; (compound 1 µM) 50.2% and 61.5% and 87%; (compound 3.16 µM) 23.9% and 23.1% and 24.4%; (compound 10 µM) 13.9% and 18.3% and 13.1%. Also, the IC50 (curve of compound) was 1050 nM and 1400 nM and 1980 nM.

As for `CC(C)(O)C1CCC(Nc2ccc3ncc(-c4cccc(C(F)(F)F)c4)n3n2)CC1` (stereo not given), the viability, T/C (compound 0.0316 µM) is 116% and 108% and 110%; the viability, T/C (compound 0.1 µM) is 95.4% and 96.7% and 97.2%; the viability, T/C (compound 0.316 µM) is 83% and 89.8% and 76.7%; the viability, T/C (compound 1 µM) was 30% and 33.8% and 28.6%; the viability, T/C (compound 3.16 µM) was 0.43% and 0.52% and 1.03%; the viability, T/C (compound 10 µM) was 0.85% and 0.69% and 1%. Also, for the setting “curve of compound”, the IC50 is 633 nM and 711 nM and 588 nM.

With `Cc1cccc(N(C)C(=O)C2C(O)CCN2c2nc(C)cc(C(F)(F)F)c2C#N)c1` (stereo not given), the viability, T/C runs as follows: (compound 0.0316 µM) 98.9% and 109% and 103%; (compound 0.1 µM) 92.7% and 102% and 96.2%; (compound 0.316 µM) 91.3% and 123% and 98.8%; (compound 1 µM) 106% and 90.7% and 99.7%; (compound 3.16 µM) 105% and 86.5% and 93.1%; (compound 10 µM) 81.7% and 77.5% and 81.6%. In addition, under “curve of compound”, the IC50 was more than 10000 nM.

Take `Nc1ccn(C2OC(CO)C(O)C2(F)F)c(=O)n1` (stereo not given): the viability, T/C (compound 0.0316 µM) is 55.7% and 53.6% and 61.2%; the viability, T/C (compound 0.1 µM) was 16.2% and 24.2% and 38%; the viability, T/C (compound 0.316 µM) is 16.1% and 12.7% and 9.59%; the viability, T/C (compound 1 µM) is 13.7% and 10.9% and 8.17%; the viability, T/C (compound 3.16 µM) is 10.1% and 14.3% and 9.39%; the viability, T/C (compound 10 µM) is 9.89% and 13.5% and 8.25%. For the same compound, under “curve of compound”, the IC50 was 37.3 nM and 36.3 nM and 55.1 nM.

Take `CC[C@@]1(O)C(=O)OCc2c1cc1n(c2=O)Cc2cc3c(CN(C)C)c(O)ccc3nc2-1`: the viability, T/C runs as follows: (compound 0.000999 µM) 116% and 105% and 101%; (compound 0.00316 µM) 84% and 86.8% and 104%; (compound 0.00999 µM) 94.2% and 83.8% and 102%; (compound 0.0316 µM) 70.6% and 71.7% and 80.6%; (compound 0.0999 µM) 22.3% and 25% and 25.1%; (compound 0.316 µM) 14% and 20.4% and 10.5%. The IC50 (curve of compound) was 51.5 nM and 53.9 nM and 59.7 nM.

`CCc1c2c(nc3ccc(O)cc13)-c1cc3c(c(=O)n1C2)COC(=O)[C@]3(O)CC`: the viability, T/C was 67.6% and 68.7% and 66.8% (compound 0.000999 µM); 24.9% and 26.7% and 19.9% (compound 0.00316 µM); 13% and 18.2% and 10.6% (compound 0.00999 µM); 12.7% and 11.9% and 9.88% (compound 0.0316 µM); 8.64% and 6.96% and 7.26% (compound 0.0999 µM); 4.6% and 5.68% and 4.03% (compound 0.316 µM). In addition, the concentration for half-maximal inhibition (IC50) (curve of compound) is 1.61 nM and 1.72 nM and 1.51 nM.

As usually defined, the viability, T/C is the ratio of treated to control. By IC50 is commonly meant the concentration at which inhibition is half-maximal.
